Measurements from patent publication US9120838B2, “Saccharide conjugates” (Curators of the University of Missouri, priority 2011, dated 2015).
pIC50: −log10 of the molar value. Like-named read-outs stand apart in the source and are kept apart here.

Experiments:
[1] = test system: LPS-induced TNFα production; experiment: LPS antagonism assay: inhibition of LPS-induced TNFα production in THP-1 macrophages (ELISA); type: cell-based, human; details: for LPS antagonistic activity: increasing concentrations, 10 ng/mL LPS 6 h; for inhibitory activity against LPS-induced TNFα production: concentration range of 0.1 nM to 10 μM
Protocol: Synthetic compounds in solid form were dissolved in tetrahydrofuran (THF), aliquotted in small volumes, vacuum-centrifuged for 1 h and stored at −80° C. as dry compounds. For cellular treatment, an aliquot was dissolved in an appropriate volume of dimethylsulfoxide (DMSO) to give a concentrated working stock solution. This stock solution was further diluted in DMSO to give the desired concentration range. The final concentration of DMSO in the cell treatments was always maintained at 0.6%. Concentrations of Fmoc-containing compounds were verified by absorbance using an extinction coefficient of 7800 M^−1 cm^−1 at 301 nm.
THP-1 cells were obtained from ATCC (Manassas, Va.) and maintained in RPMI-1640 culture medium (HyClone, Logan, Utah) containing 2 mM L-glutamine, 25 mM HEPES, 1.5 g/L sodium bicarbonate, 10% fetal bovine serum (FBS) (HyClone), 50 units/mL penicillin, 50 μg/mL streptomycin (HyClone), and 50 μM β-mercaptoethanol at 37° C. in 5% CO2. For cellular assay, THP-1 monocytes were centrifuged and resuspended in a fresh growth medium to a cell density of 5×10^5 cells/mL Cells were then seeded in a 48-well plate and differentiated into adherent macrophages by treatment with 10 ng/mL phorbol 12-myristate 13-acetate (PMA) (Sigma) for 24 h at 37° C. in 5% CO2. The non-adherent cells were removed and the adherent cells were washed and replenished with reduced FBS growth medium. For the two wells set aside for calculating percent differentiation, the cells were washed with PBS (Hyclone) prior to removal by 0.25% trypsin-EDTA. Cells in a separate well were removed with 0.25% trypsin and counted under the microscope using a hemocytometer to determine the number of adherent macrophages. For the remaining wells, the cells were pre-incubated with LPS antagonist compounds at different concentrations for 30 min followed by addition of 10 ng/mL ultrapure LPS from E. coli K12 (InvivoGen, San Diego, Calif.) for 6 h at 37° C. in 5% CO2. 0.6% DMSO was used as a control. The cell medium was collected and stored at −20° C. until analyzed by ELISA for secreted TNFα production.

THP-1 macrophages = experiment: Cell viability (toxicity) by XTT reduction assay in THP-1 macrophages; type: cell-based, human; details: for concentration at which toxic to the cells / cell viability compromised: XTT reduction assay; for toxicity (in words): THP-1 macrophages
Protocol: Cell viability was monitored using an XTT [2,3-bis(2-methoxy-4-nitro-5-sulfophenyl)-2H-tetrazolium-5-carboxanilide] assay. Macrophage metabolic activity was assessed by probing mitochondrial reduction of XTT (Sigma) which is a measure of viability (or toxicity) in response to the synthetic antagonists. Following 6 h treatment with antagonist compounds and LPS, the macrophages were washed with PBS (Hyclone) and incubated with XTT (0.33 mg/mL) and phenazine methosulfate (PMS) (8.3 μM) (Acros, Morris Plains, N.J.) to a final concentration of 0.33 mg/mL and 8.3 μM respectively for 2 h at 37° C. in 5% CO2. The cellular toxicity was then assessed in a platereader using absorbance of reduced XTT at 467 nm.

TNFα production = experiment: Agonist activity: secreted TNFα in THP-1 macrophages in the absence of LPS; type: cell-based, human; details: for concentration range with agonist activity: FIG. 4 and FIG. 6; for agonist activity in the absence of LPS: tested in the absence of LPS
LPS = details: Boons et al.; Shiozaki et al.; Peri et al.; cited from earlier work
[2] = human macrophage cells (THP-1), 10 ng/mL LPS for 6 h, read-out: TNFα inhibition (IC50)
[3] = concentration at which toxicity is seen, human macrophage cells, XTT reduction
[4] = concentration range showing agonist activity, human macrophage cells
[5] = human macrophage cells (THP-1), 10 ng/mL LPS for 6 h

SMILES	LPS antagonistic activity ([1]; THP-1 macrophages)	pIC50 [1, 2]	Toxicity (THP-1 macrophages; [3])	Agonist activity (TNFα production; [4])	toxicity (in words) (THP-1 macrophages; XTT reduction)	inhibitory activity against LPS-induced TNFα production [1]	TNFα inhibition (IC50) [1, 5]	agonist activity in the absence of LPS (TNFα production)	further results
CCCCCCCCCCCCCC(=O)O[C@H]1[C@@H](OC)O[C@H](COC(=O)CCC(=O)OC[C@H](NC(=O)OCC2c3ccccc3-c3ccccc32)C(=O)O)[C@@H](O)[C@@H]1OC(=O)CCCCCCCCCCCCC [Compound 19, Methyl 6-O-(4-((S)-2-(9-fluorenylmethoxyearbonyl)amino-2-carboxyethyl)oxy-4-oxobutanoyl)-2,3-di-O-tetradecanoyl-α-D-glucopyranoside]	highly potent LPS antagonistic activity	5.52	>10 µM	10 to 30 µM					LPS response blocked ([1]; 5 μM compound): 80%; concentration at which inhibition of LPS-induced TNFα begins ([1]; THP-1 macrophages): ≥ 550 nM; concentration at which toxic to the cells / cell viability compromised (THP-1 macrophages): ≥ 10 µM; Toxicity (THP-1 macrophages; at 5 μM compound): no observable toxicity; concentration range with agonist activity (TNFα production): 10 to 30 µM
CCCCCCCCCCCCCCO[C@H]1[C@@H](OC)O[C@H](COC(=O)CCC(=O)OC[C@H](NC(=O)OCC2c3ccccc3-c3ccccc32)C(=O)O)[C@@H](O)[C@@H]1OCCCCCCCCCCCCCC [Compound 24, Methyl 6-O-(4-((S)-2-(9-fluorenylmethoxycarbonyl)amino-2-carboxyethyl)oxy-4-oxobutanoyl)-2,3-di-O-tetradecanyl-α-D-glucopyranoside]	significant LPS antagonistic activity	6.30	None observed	None observed	without toxicity				inhibition at 1 µM ([1]; Homo sapiens, THP-1, 1 μM compound): 70%; inhibition at 40 µM ([1]; Homo sapiens, THP-1, 40 μM compound, read-out: overall inhibition of LPS-induced TNFα production): 90%; pIC50 ([1]; Macrophage, LPS-induced TNFα production in human macrophages, FIG. 5, read-out: IC50, curve fitting of the inhibition data): 6.33; Toxicity (THP-1 macrophages; tested 0.2 to 40 μM range): no toxicity; Agonist activity (TNFα production; tested 0.2 to 40 μM range): no toxicity or agonist activity
CO[C@H]1O[C@H](COC(=O)CCC(=O)OC[C@H](N)C(=O)OC(C)(C)C)[C@@H](O)[C@H](OCc2ccccc2)[C@H]1OCc1ccccc1 [Compound 12, Methyl 2,3-di-O-benzyl-6-O-(4-((S)-2-amino-3-(tert-butoxy)-3-oxopropyl)oxy-4-oxobutanoyl)-α-D-glycopyranoside]	do not display LPS antagonistic activity		None observed	None observed		no inhibitory activity	None observed	no agonist activity	
CO[C@H]1OC(COC(=O)CCC(=O)OC[C@H](NC(=O)OCC2c3ccccc3-c3ccccc32)C(=O)O)[C@@H](O)[C@H](OCc2ccccc2)C1OCc1ccccc1 (stereo partly drawn) [Compound 11, Methyl 2,3-di-O-benzyl-6-O-(4-((S)-2-(9-fluorenylmethoxyearbonyl)amino-2-carboxyethyl)oxy-4-oxobutanoyl)-α-D-glycopyranoside]	displays LPS antagonistic activity	4.34	>10 µM	None observed	cell toxicity				concentrations at which LPS-induced TNFα production is significantly inhibited ([1]; THP-1 macrophages): greater than 10 μM; concentration at which toxic to the cells / cell viability compromised (THP-1 macrophages): 30 to 100 µM
CCCCCCCCCCCCCCO[C@H]1[C@@H](OC)O[C@H](C[N+](C)(C)C2CCCC2)[C@@H](O)[C@@H]1OCCCCCCCCCCCCCC [Compound 4, reference compound]		5.22	>30 µM	30 to 100 µM	toxic at high concentrations				inhibition range ([1]; LPS-induced TNFα production): 3 to 10 µM; concentration range with agonist activity (TNFα production): > 10 µM; antagonistic activity against LPS as reported in the literature (LPS): provide antagonistic activity
CO[C@H]1OC(COC(=O)CCC(=O)OC[C@H](NC(=O)OCC2c3ccccc3-c3ccccc32)C(=O)OC(C)(C)C)[C@@H](O)[C@H](OCc2ccccc2)C1OCc1ccccc1 (stereo partly drawn) [Compound 10, Methyl 2,3-di-O-benzyl-6-O-(4-((S)-2-(9-fluorenylmethoxyearbonyl)amino-3-(tert-butoxy)-3-oxopropyl)oxy-4-oxobutanoyl)-α-D-glycopyranoside]	do not display LPS antagonistic activity		None observed	None observed		no inhibitory activity	None observed	no agonist activity	
CO[C@H]1O[C@H](COC(=O)CCC(=O)OC[C@H](N)C(=O)O)[C@@H](O)[C@H](OCc2ccccc2)[C@H]1OCc1ccccc1 [Compound 13, Methyl 2,3-di-O-benzyl-6-O-(4-((S)-2-amino-2-carboxyethyl)oxy-4-oxobutanoyl)-α-D-glycopyranoside]	do not display LPS antagonistic activity		None observed	None observed		no inhibitory activity	None observed	no agonist activity	
